Experiments:
[1] = Suspension and solution of citral in water; assay type: physicochemical
Description: In one embodiment the terpene component includes one or more terpenes which contain oxygen.

E. coli = conditions: cited from earlier work
S. aureus = assay: MIC of terpene emulsions and fresh or freeze-dried Baker's YP / SAF Mannan encapsulated terpenes against S. aureus; assay type: cell-based; conditions: for MIC μg/ml terpene, Bakers Freeze Dried / MIC μg/ml terpene, Bakers Fresh: encapsulated in Baker's YP; for MIC μg/ml terpene, SAF Mannan Freeze Dried / MIC μg/ml terpene, SAF Mannan Fresh: encapsulated in SAF Mannan; for MIC μg/ml terpene, Emulsion: not encapsulated
Description: The results of a protocol performed to compare the MIC of fresh versus freeze dried hollow glucan particle encapsulated terpene formulations are shown below in Table 13. A simple terpene emulsion was also tested and the results are shown for comparison.

H. pylori = conditions: cited from earlier work

Row | Compound | solution, maximum concentration [1] | stable suspension, maximum concentration [1] | stable suspension of hollow glucan particles incorporating citral ([1]; ppt citral) [ppt] | concentration in growth media that reduced the concentration of E. coli (E. coli) | concentration with bactericidal effect (E. coli) [%] | MIC μg/ml terpene, Bakers Freeze Dried (S. aureus) [μg/ml terpene] | MIC μg/ml terpene, Bakers Fresh (S. aureus) [μg/ml terpene] | MIC μg/ml terpene, SAF Mannan Freeze Dried (S. aureus) [μg/ml terpene] | MIC μg/ml terpene, SAF Mannan Fresh (S. aureus) [μg/ml terpene] | MIC μg/ml terpene, Emulsion (S. aureus) [μg/ml terpene] | concentration that inhibited the growth of H. pylori in vitro (H. pylori) [mg/L]
1 | CC(C)=CCCC(C)=CC=O [Citral, 3,7-dimethyl-2,6-octadien-1-al] | up to 500 ppm | up to 2500 ppm | 25 | more than 0.01% | 0.08 | 0.05 | 0.01 | >0.03 | 0.01 | 0.94 | 
2 | C=CCc1ccc(O)c(OC)c1 [Eugenol] |  |  |  |  |  | 0.05 | 0.03 | 0.05 | 0.01 | 0.12 | 
3 | CC(C)=CCC/C(C)=C/CO [Geraniol] |  |  |  |  |  | 0.06 | 0.03 | >0.03 | 0.02 | 0.47 | 2
4 | L-carvone |  |  |  |  |  | >0.04 | 0.1 | >0.02 | 0.01 | 3.75 | 

— patent US10258033B2 (Eden Research PLC, priority 2005, dated 2019)
